Assay results as given in article PMC4065883 (European journal of medicinal chemistry, 2014).
“Also recorded” adds a separate entry of the source. Read-outs that look alike come from different tables or passages of the source.

How the values were obtained:
Peroxyl = details: compound 1 mM, BMPO 10 mM
[1] = Hydroxyl radical scavenging, BMPO spin trap EPR; details: compound 1 mM, BMPO 10 mM
MC65 cells = details: MTT
[2] = ROS scavenging activity, radical type not specified, BMPO spin trap EPR; details: compound 1 mM, BMPO 10 mM
[3] = target: T1, Acetylcholinesterase from bovine erythrocytes (Bos taurus, UniProt P23795); format: biochemical
T1 sequence (P23795 31-614 isoform P23795-2 limits assumed): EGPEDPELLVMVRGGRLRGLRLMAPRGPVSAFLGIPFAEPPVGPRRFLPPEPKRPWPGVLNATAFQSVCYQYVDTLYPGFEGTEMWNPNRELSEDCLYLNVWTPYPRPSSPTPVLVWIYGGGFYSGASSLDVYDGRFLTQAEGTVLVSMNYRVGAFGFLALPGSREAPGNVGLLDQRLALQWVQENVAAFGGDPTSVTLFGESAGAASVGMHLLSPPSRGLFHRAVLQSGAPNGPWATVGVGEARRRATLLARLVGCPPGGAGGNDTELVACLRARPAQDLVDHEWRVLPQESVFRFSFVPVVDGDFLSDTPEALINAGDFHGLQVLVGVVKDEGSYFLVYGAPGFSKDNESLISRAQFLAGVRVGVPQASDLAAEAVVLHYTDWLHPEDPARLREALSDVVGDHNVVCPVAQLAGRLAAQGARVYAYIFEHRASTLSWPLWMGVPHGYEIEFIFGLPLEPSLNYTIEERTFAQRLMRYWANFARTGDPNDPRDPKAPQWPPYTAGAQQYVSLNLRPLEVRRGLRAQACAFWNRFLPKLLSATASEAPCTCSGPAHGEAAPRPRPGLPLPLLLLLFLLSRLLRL

| Structure (SMILES) | peroxyl / superoxide radical scavenging activity (in words) (Peroxyl) | hydroxyl radical scavenging activity (in words) [1] | protection against Aβ-induced cytotoxicity (in words) (MC65 cells) | ROS scavenging activity (in words) [2] | AChEI activity (in words) [3] | protection against Aβ-induced cytotoxicity (in words) (MC65 cells; listed as 9) | peroxyl / superoxide radical scavenging activity (in words) (Peroxyl; listed as 20) |
| --- | --- | --- | --- | --- | --- | --- | --- |
| Cl.Nc1c2c(nc3ccccc13)CCCC2 [1/HCl, reference compound] | limited | limited | do not exhibit any protection |  |  |  |  |
| Nc1c2c(nc3ccccc13)CCCC2 [1b, 9-amino-1,2,3,4-tetrahydroacridine, reference compound] | limited; also recorded: lack peroxyl radical scavenging activity | limited |  | no significant effect on the level of radical detected |  |  |  |
| CC1(C)C=C(CNc2c3c(nc4ccccc24)CCCC3)C(C)(C)N1[O] [4b, 2,2,5,5-Tetramethyl-3-[(1,2,3,4-tetrahydroacridin-9-yl)aminomethyl]-2,5-dihydro-1H-pyrrol-1-yloxyl Radical] | excellent |  | protection against Aβ-induced cytotoxicity | remarkable ROS scavenging activity | less AChEI activity than compound 1b |  |  |
| CC1(C)C=C(CN2CCN(c3c4c(nc5ccccc35)CCCC4)CC2)C(C)(C)N1[O] [9b, 2,2,5,5-Tetramethyl-3-[4-(1,2,3,4-tetrahydroacridin-9-yl)piperazin-1-ylmethyl]-2,5-dihydro-1H-pyrrol-1-yloxyl Radical] | excellent |  | protection against Aβ-induced cytotoxicity | remarkable ROS scavenging activity | less AChEI activity than compound 1b | remarkable cell protection |  |
| CC1(C)Cc2nc3ccccc3c(N)c2C(C)(C)N1 [16b, 1,1,3,3-tetramethyl-1,2,3,4-tetrahydrobenzo[b][1,6]naphthyridin-10-amine] | lack peroxyl radical scavenging activity |  | notable protective activity; also recorded: lower protective activity |  | inactive |  |  |
| CC1(C)Cc2nc3ccccc3c(N)c2C(C)(C)N1[O] [17b, 10-amino-1,1,3,3-tetramethyl-3,4-dihydrobenzo[b][1,6]naphthyridin-2(1H)-yloxyl Radical] | excellent | superior | notable protective activity |  |  |  |  |
| CC1(C)NC(C)(C)c2c1nc1ccccc1c2N [19b, 1,1,3,3-tetramethyl-2,3-dihydro-1H-pyrrolo[3,4-b]quinolin-9-amine] |  |  | notable protective activity; also recorded: lower protective activity |  |  |  |  |
| CC1(C)c2nc3ccccc3c(N)c2C(C)(C)N1[O] [20b, 9-amino-1,1,3,3-tetramethyl-1H-pyrrolo[3,4-b]quinolin-2(3H)-yloxyl Radical] | lack peroxyl radical scavenging activity |  | notable protective activity |  |  |  | excellent |
| CN1CCc2nc3ccccc3c(N)c2C1 [22b, 2-methyl-1,2,3,4-tetrahydrobenzo[b][1,6]naphthyridin-10-amine] | lack peroxyl radical scavenging activity |  | notable protective activity |  |  |  |  |
| CN1C(C)(C)Cc2nc3ccccc3c(N)c2C1(C)C [24b, 1,1,2,3,3-pentamethyl-1,2,3,4-tetrahydrobenzo[b][1,6]naphthyridin-10-amine] | lack peroxyl radical scavenging activity |  | notable protective activity |  | limited AChEI activity |  |  |
| CC1(C)C=C(CNc2c3c(nc4ccccc24)CCCC3)CC(C)(C)N1[O] [compound 5, 2,2,6,6-Tetramethyl-4-[(1,2,3,4-tetrahydroacridin-9-yl)aminomethyl]-1,2,3,6-tetrahydropyridin-1-yloxyl Radical] | excellent |  | protection against Aβ-induced cytotoxicity | remarkable ROS scavenging activity | less AChEI activity than compound 1b |  |  |
| c1ccc2c(N3CCNCC3)c3c(nc2c1)CCCC3 [compound 7, 9-(Piperazin-1-yl)-1,2,3,4-tetrahydroacridine] | limited; also recorded: lack peroxyl radical scavenging activity | limited | do not provide any significant level of cell protection |  |  |  |  |
| C#CCN1CCN(c2c3c(nc4ccccc24)CCCC3)CC1 [compound 10, 9-[4-(prop-2-yn-1-yl)piperazin-1-yl]-1,2,3,4-tetrahydroacridine] | limited; also recorded: lack peroxyl radical scavenging activity | limited | do not provide any significant level of cell protection |  | less AChEI activity than compound 1b |  |  |
| CC1(C)CC(n2cc(CN3CCN(c4c5c(nc6ccccc46)CCCC5)CC3)nn2)CC(C)(C)N1[O] [compound 12, 2,2,6,6-Tetramethyl-4-{4-[4-(1,2,3,4-tetrahydroacridin-9-yl)piperazin-1-ylmethyl]-1H-1,2,3-triazol-1-yl}piperidin-1-yloxyl Radical] | excellent |  | protection against Aβ-induced cytotoxicity; also recorded: remarkable cell protection | remarkable ROS scavenging activity; also recorded: most efficient | less AChEI activity than compound 1b; also recorded: active; also recorded: most efficient AChE inhibitors |  |  |
| COc1ccc(CN2CCN(c3c4c(nc5ccccc35)CCCC4)CC2)c(OC)c1OC [compound 13, 9-[4-(2,3,4-trimethoxybenzyl)piperazin-1-yl]-1,2,3,4-tetrahydroacridine] | lack peroxyl radical scavenging activity |  | notable protective activity | appreciable scavenging activity; also recorded: notable antioxidant activity |  |  |  |
